Data as given in article PMC11055700 (Chemicke Zvesti, 2024).
Where two headings read alike, the source gives them in different places.

Tests used:
[1] = target: T1, SARS-CoV-2 Spike-RBD (ancestral, WT) / ACE2 (Homo sapiens, UniProt Q9BYF1); assay: biochemical; assay type: binding
T1 construct: a SARS-CoV-2 RBD protein containing a C-terminal His tag; a full-length ACE2 peptide with a C-terminal Fc tag; purchased Sino Biological

[2] = target: T2, SARS-CoV-2 Spike-RBD (lambda) / ACE2 (Homo sapiens, UniProt Q9BYF1); assay: biochemical; assay type: binding
T2 construct: a SARS-CoV-2 RBD protein containing a C-terminal His tag; a full-length ACE2 peptide with a C-terminal Fc tag; purchased Sino Biological
T2 sequence (Q9BYF1 18-740): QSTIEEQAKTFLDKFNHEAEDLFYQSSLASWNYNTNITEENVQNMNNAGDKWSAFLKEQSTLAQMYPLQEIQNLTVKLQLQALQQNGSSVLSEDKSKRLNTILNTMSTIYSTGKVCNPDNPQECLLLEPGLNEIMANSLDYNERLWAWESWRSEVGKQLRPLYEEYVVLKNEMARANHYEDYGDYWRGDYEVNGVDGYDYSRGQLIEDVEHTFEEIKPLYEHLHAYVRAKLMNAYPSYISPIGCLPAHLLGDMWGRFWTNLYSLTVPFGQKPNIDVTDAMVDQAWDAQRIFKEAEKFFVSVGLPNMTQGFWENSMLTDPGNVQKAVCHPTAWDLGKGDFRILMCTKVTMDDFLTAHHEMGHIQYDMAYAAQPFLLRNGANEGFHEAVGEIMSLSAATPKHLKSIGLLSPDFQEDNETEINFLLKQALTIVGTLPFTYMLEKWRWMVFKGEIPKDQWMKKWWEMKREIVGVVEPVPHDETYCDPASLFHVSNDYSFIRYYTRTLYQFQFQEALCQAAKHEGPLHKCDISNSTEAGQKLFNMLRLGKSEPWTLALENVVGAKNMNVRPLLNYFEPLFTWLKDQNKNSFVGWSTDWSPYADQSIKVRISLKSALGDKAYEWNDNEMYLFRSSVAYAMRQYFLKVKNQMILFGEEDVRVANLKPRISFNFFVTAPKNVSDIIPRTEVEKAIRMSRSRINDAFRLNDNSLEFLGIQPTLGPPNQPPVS

T1 sequence (Q9BYF1 18-740): as above

Compound	IC50 ([1]; IC50 spike RBD/ACE2 binding, WT RBD sequence) [nM]	fold difference in IC50 for any variant versus WT RBD [2] [fold]	IC50 ([1]; read-out: IC50 spike RBD/ACE2 binding, WT RBD sequence) [nM]
O=C1Nc2ccc(Cl)cc2C1=NNc1ccc([N+](=O)[O-])cc1[N+](=O)[O-] [H2L, 5-chloro-3-(2-(2,4-dinitrophenyl)hydrazono)indolin-2-one]	448	≤ 1.4	
REGN10933			1.3
